According to patent publication US6365621B1, “Remedies or preventives for intractable epilepsy” (Pharmaceutical Co., Ltd., priority 1998, dated 2002):

System: kainate-induced amygdala seizures
Assay: Local cerebral glucose metabolism during kainate-induced amygdala seizures ([14C]deoxyglucose autoradiography)
Assay type: in vivo, rat
Set-up: key to Effect on local cerebral glucose metabolism rate: → : no change; →↓ : decreased in a low degree; ↓ : decreased in a moderate degree; ↓↓ : decreased in a high degree
Conditions: for Local glucose metabolism rate: average ± standard error
Description: [Method for measuring cerebral glucose metabolism] Cannulas for injection of kainic acid were inserted in an assigned position of the left side of the amygdala of 18 Wistar male rats and fixed through the same procedure as described in Example I-1. Seven days after operation, polyethylene catheters were set and fixed to the femoral artery and vein of one side under halothane anesthesion, and the lower half of the body of each rat were put in plaster so as to prevent removal of the catheter. Upon awakening from narcotism, the same kainic acid solution as described in I-1 (1 μL) was injected through the cannula so as to induce seizures. After elapse of 90 minutes from injection of kainic acid, when limbic system seizures were in status epilepticus, 50, 100, or 200 mg/kg of nefiracetam was intravenously injected, whereas saline was injected into rats of the control group. After 60 minutes, 25 μCi of [^14C] deoxyglucose was intravenously injected. After the tracer was injected, blood was continuously collected from the artery for 45 minutes. When collection was finished, heads were cut off. Brains were extirpated immediately and instantly frozen in by hexane (−25° C.) cooled by dry ice. The frozen brain was sliced in a cryostat (−20° C.) so as to produce coronary, serial-frozen sections having a thickness of 20 μm. Subsequently, the sections were dried and put on high-speed X-ray film with a [^14C] standard, followed by seven-day-exposure in a cassette to thereby obtain an autoradiogram. The blood samples collected from the artery were centrifuged so as to collect plasma, the [^14C] radioactivity was measured by use of a liquid scintillation counter, and glucose concentration in plasma was measured.
The optical density of the intracerebral structure of each section was measured from the autoradiogram by use of a densitometer, and a glucose utilization rate of each intracerabral structure was calculated by use of the formula of Sokoloff (Sokoloff, L., Reivich, M., Kennedy, C., et al., J. Neurochemistry, 28: 897-916, 1977) based on [^14C] radioactivity and glucose concentration in plasma. The obtained data were compared quantitatively and statistically with those of the control group, through the Mann-Whitney U-test.

[1] = Amygdala, focal side, 100 mg/kg i.v.
[2] = Amygdala, non-focal side, 100 mg/kg i.v.
[3] = Brain stem reticular formation, focal side, 100 mg/kg i.v.
[4] = Brain stem reticular formation, non-focal side, 100 mg/kg i.v.
[5] = Candatum-putamen, focal side, 100 mg/kg i.v.
[6] = Candatum-putamen, non-focal side, 100 mg/kg i.v.
[7] = Cerebellar cortex, focal side, 100 mg/kg i.v.
[8] = Cerebellar cortex, non-focal side, 100 mg/kg i.v.
[9] = Corpus callosum, focal side, 100 mg/kg i.v.
[10] = Corpus callosum, non-focal side, 100 mg/kg i.v.
[11] = Frontal lobe cortex, focal side, 100 mg/kg i.v.
[12] = Frontal lobe cortex, non-focal side, 100 mg/kg i.v.
[13] = Hypothalamaus, focal side, 100 mg/kg i.v.
[14] = Hypothalamaus, non-focal side, 100 mg/kg i.v.
[15] = Occipital lobe cortex, focal side, 100 mg/kg i.v.
[16] = Occipital lobe cortex, non-focal side, 100 mg/kg i.v.
[17] = Parietal lobe cortex, focal side, 100 mg/kg i.v.
[18] = Parietal lobe cortex, non-focal side, 100 mg/kg i.v.
[19] = Sensorimotor area cortex, focal side, 100 mg/kg i.v.
[20] = Sensorimotor area cortex, non-focal side, 100 mg/kg i.v.
[21] = Septal area, focal side, 100 mg/kg i.v.
[22] = Septal area, non-focal side, 100 mg/kg i.v.
[23] = Substantia nigra, focal side, 100 mg/kg i.v.
[24] = Substantia nigra, non-focal side, 100 mg/kg i.v.
[25] = Temporal lobe cortex, focal side, 100 mg/kg i.v.
[26] = Temporal lobe cortex, non-focal side, 100 mg/kg i.v.
[27] = Thalamus, focal side, 100 mg/kg i.v.
[28] = Thalamus, non-focal side, 100 mg/kg i.v.
[29] = hippocampus, focal side, 100 mg/kg i.v.
[30] = hippocampus, non-focal side, 100 mg/kg i.v.

Compound: Cc1cccc(C)c1NC(=O)CN1CCCC1=O [nefiracetam, N-(2,6-dimethylphenyl)-2-(2-oxo-1-pyrrolidinyl)acetamide]
- Regions with promoted glucose metabolism (200 mg/kg i.v.): the amygdala on the focal side is the only region where the metabolism is prompted
- Effect on local cerebral glucose metabolism rate (Amygdala, focal side, 50 mg/kg i.v.): →
- Effect on local cerebral glucose metabolism rate [1]: →
- Local glucose metabolism rate [1]: 201 ± 4.5 µmol/100 g/min
- Effect on local cerebral glucose metabolism rate (Amygdala, focal side, 200 mg/kg i.v.): ↓
- Effect on local cerebral glucose metabolism rate (Amygdala, non-focal side, 50 mg/kg i.v.): →
- Effect on local cerebral glucose metabolism rate [2]: ↓↓
- Local glucose metabolism rate [2]: 66.2 ± 3.8 µmol/100 g/min
- Effect on local cerebral glucose metabolism rate (Amygdala, non-focal side, 200 mg/kg i.v.): ↓↓
- Effect on local cerebral glucose metabolism rate (Brain stem reticular formation, focal side, 50 mg/kg i.v.): →
- Effect on local cerebral glucose metabolism rate [3]: →↓
- Local glucose metabolism rate [3]: 52.9 ± 3.5 µmol/100 g/min
- Effect on local cerebral glucose metabolism rate (Brain stem reticular formation, focal side, 200 mg/kg i.v.): ↓
- Effect on local cerebral glucose metabolism rate (Brain stem reticular formation, non-focal side, 50 mg/kg i.v.): →
- Effect on local cerebral glucose metabolism rate [4]: ↓
- Local glucose metabolism rate [4]: 49.6 ± 3.3 µmol/100 g/min
- Effect on local cerebral glucose metabolism rate (Brain stem reticular formation, non-focal side, 200 mg/kg i.v.): ↓
- Effect on local cerebral glucose metabolism rate (Candatum-putamen, focal side, 50 mg/kg i.v.): →
- Effect on local cerebral glucose metabolism rate [5]: →
- Local glucose metabolism rate [5]: 207 ± 16.5 µmol/100 g/min
- Effect on local cerebral glucose metabolism rate (Candatum-putamen, focal side, 200 mg/kg i.v.): ↓
- Effect on local cerebral glucose metabolism rate (Candatum-putamen, non-focal side, 50 mg/kg i.v.): →↓
- Effect on local cerebral glucose metabolism rate [6]: ↓↓
- Local glucose metabolism rate [6]: 73.1 ± 2.5 µmol/100 g/min
- Effect on local cerebral glucose metabolism rate (Candatum-putamen, non-focal side, 200 mg/kg i.v.): ↓↓
- Effect on local cerebral glucose metabolism rate (Cerebellar cortex, focal side, 50 mg/kg i.v.): →
- Effect on local cerebral glucose metabolism rate [7]: →
- Local glucose metabolism rate [7]: 47.2 ± 2.5 µmol/100 g/min
- Effect on local cerebral glucose metabolism rate (Cerebellar cortex, focal side, 200 mg/kg i.v.): →
- Effect on local cerebral glucose metabolism rate (Cerebellar cortex, non-focal side, 50 mg/kg i.v.): →
- Effect on local cerebral glucose metabolism rate [8]: ↓
- Local glucose metabolism rate [8]: 46.1 ± 2.1 µmol/100 g/min
- Effect on local cerebral glucose metabolism rate (Cerebellar cortex, non-focal side, 200 mg/kg i.v.): →
- Effect on local cerebral glucose metabolism rate (Corpus callosum, focal side, 50 mg/kg i.v.): →
- Effect on local cerebral glucose metabolism rate [9]: →
- Local glucose metabolism rate [9]: 21.9 ± 1.1 µmol/100 g/min
- Effect on local cerebral glucose metabolism rate (Corpus callosum, focal side, 200 mg/kg i.v.): →
- Effect on local cerebral glucose metabolism rate (Corpus callosum, non-focal side, 50 mg/kg i.v.): →
- Effect on local cerebral glucose metabolism rate [10]: →
- Local glucose metabolism rate [10]: 21.1 ± 1.1 µmol/100 g/min
- Effect on local cerebral glucose metabolism rate (Corpus callosum, non-focal side, 200 mg/kg i.v.): →
- Effect on local cerebral glucose metabolism rate (Frontal lobe cortex, focal side, 50 mg/kg i.v.): →
- Effect on local cerebral glucose metabolism rate [11]: ↓
- Local glucose metabolism rate [11]: 81.8 ± 5.7 µmol/100 g/min
- Effect on local cerebral glucose metabolism rate (Frontal lobe cortex, focal side, 200 mg/kg i.v.): ↓
- Effect on local cerebral glucose metabolism rate (Frontal lobe cortex, non-focal side, 50 mg/kg i.v.): →
- Effect on local cerebral glucose metabolism rate [12]: ↓
- Local glucose metabolism rate [12]: 65.7 ± 3.6 µmol/100 g/min
- Effect on local cerebral glucose metabolism rate (Frontal lobe cortex, non-focal side, 200 mg/kg i.v.): ↓
- Effect on local cerebral glucose metabolism rate (Hypothalamaus, focal side, 50 mg/kg i.v.): →
- Effect on local cerebral glucose metabolism rate [13]: ↓
- Local glucose metabolism rate [13]: 70.6 ± 4.7 µmol/100 g/min
- Effect on local cerebral glucose metabolism rate (Hypothalamaus, focal side, 200 mg/kg i.v.): ↓
- Effect on local cerebral glucose metabolism rate (Hypothalamaus, non-focal side, 50 mg/kg i.v.): →
- Effect on local cerebral glucose metabolism rate [14]: →↓
- Local glucose metabolism rate [14]: 58.5 ± 4.5 µmol/100 g/min
- Effect on local cerebral glucose metabolism rate (Hypothalamaus, non-focal side, 200 mg/kg i.v.): ↓
- Effect on local cerebral glucose metabolism rate (Occipital lobe cortex, focal side, 50 mg/kg i.v.): →
- Effect on local cerebral glucose metabolism rate [15]: →↓
- Local glucose metabolism rate [15]: 139 ± 5.6 µmol/100 g/min
- Effect on local cerebral glucose metabolism rate (Occipital lobe cortex, focal side, 200 mg/kg i.v.): ↓
- Effect on local cerebral glucose metabolism rate (Occipital lobe cortex, non-focal side, 50 mg/kg i.v.): →
- Effect on local cerebral glucose metabolism rate [16]: →↓
- Local glucose metabolism rate [16]: 78.6 ± 5.8 µmol/100 g/min
- Effect on local cerebral glucose metabolism rate (Occipital lobe cortex, non-focal side, 200 mg/kg i.v.): ↓
- Effect on local cerebral glucose metabolism rate (Parietal lobe cortex, focal side, 50 mg/kg i.v.): →
- Effect on local cerebral glucose metabolism rate [17]: →↓
- Local glucose metabolism rate [17]: 109 ± 10.6 µmol/100 g/min
- Effect on local cerebral glucose metabolism rate (Parietal lobe cortex, focal side, 200 mg/kg i.v.): ↓
- Effect on local cerebral glucose metabolism rate (Parietal lobe cortex, non-focal side, 50 mg/kg i.v.): →
- Effect on local cerebral glucose metabolism rate [18]: →↓
- Local glucose metabolism rate [18]: 72.1 ± 4.9 µmol/100 g/min
- Effect on local cerebral glucose metabolism rate (Parietal lobe cortex, non-focal side, 200 mg/kg i.v.): ↓
- Effect on local cerebral glucose metabolism rate (Sensorimotor area cortex, focal side, 50 mg/kg i.v.): →
- Effect on local cerebral glucose metabolism rate [19]: →
- Local glucose metabolism rate [19]: 139 ± 9 µmol/100 g/min
- Effect on local cerebral glucose metabolism rate (Sensorimotor area cortex, focal side, 200 mg/kg i.v.): ↓
- Effect on local cerebral glucose metabolism rate (Sensorimotor area cortex, non-focal side, 50 mg/kg i.v.): →
- Effect on local cerebral glucose metabolism rate [20]: ↓
- Local glucose metabolism rate [20]: 73.4 ± 4.7 µmol/100 g/min
- Effect on local cerebral glucose metabolism rate (Sensorimotor area cortex, non-focal side, 200 mg/kg i.v.): ↓
- Effect on local cerebral glucose metabolism rate (Septal area, focal side, 50 mg/kg i.v.): →
- Effect on local cerebral glucose metabolism rate [21]: ↓
- Local glucose metabolism rate [21]: 117 ± 22.7 µmol/100 g/min
- Effect on local cerebral glucose metabolism rate (Septal area, focal side, 200 mg/kg i.v.): ↓↓
- Effect on local cerebral glucose metabolism rate (Septal area, non-focal side, 50 mg/kg i.v.): →
- Effect on local cerebral glucose metabolism rate [22]: ↓↓
- Local glucose metabolism rate [22]: 56.9 ± 3.3 µmol/100 g/min
- Effect on local cerebral glucose metabolism rate (Septal area, non-focal side, 200 mg/kg i.v.): ↓↓
- Effect on local cerebral glucose metabolism rate (Substantia nigra, focal side, 50 mg/kg i.v.): →
- Effect on local cerebral glucose metabolism rate [23]: ↓
- Local glucose metabolism rate [23]: 77.6 ± 6.8 µmol/100 g/min
- Effect on local cerebral glucose metabolism rate (Substantia nigra, focal side, 200 mg/kg i.v.): ↓
- Effect on local cerebral glucose metabolism rate (Substantia nigra, non-focal side, 50 mg/kg i.v.): →
- Effect on local cerebral glucose metabolism rate [24]: ↓
- Local glucose metabolism rate [24]: 45.9 ± 2.7 µmol/100 g/min
- Effect on local cerebral glucose metabolism rate (Substantia nigra, non-focal side, 200 mg/kg i.v.): ↓
- Effect on local cerebral glucose metabolism rate (Temporal lobe cortex, focal side, 50 mg/kg i.v.): →
- Effect on local cerebral glucose metabolism rate [25]: →↓
- Local glucose metabolism rate [25]: 103 ± 6.2 µmol/100 g/min
- Effect on local cerebral glucose metabolism rate (Temporal lobe cortex, focal side, 200 mg/kg i.v.): ↓
- Effect on local cerebral glucose metabolism rate (Temporal lobe cortex, non-focal side, 50 mg/kg i.v.): →
- Effect on local cerebral glucose metabolism rate [26]: ↓
- Local glucose metabolism rate [26]: 67.8 ± 3.5 µmol/100 g/min
- Effect on local cerebral glucose metabolism rate (Temporal lobe cortex, non-focal side, 200 mg/kg i.v.): ↓
- Effect on local cerebral glucose metabolism rate (Thalamus, focal side, 50 mg/kg i.v.): →
- Effect on local cerebral glucose metabolism rate [27]: ↓
- Local glucose metabolism rate [27]: 90.5 ± 3.8 µmol/100 g/min
- Effect on local cerebral glucose metabolism rate (Thalamus, focal side, 200 mg/kg i.v.): ↓↓
- Effect on local cerebral glucose metabolism rate (Thalamus, non-focal side, 50 mg/kg i.v.): ↓
- Effect on local cerebral glucose metabolism rate [28]: ↓↓
- Local glucose metabolism rate [28]: 72.3 ± 2.8 µmol/100 g/min
- Effect on local cerebral glucose metabolism rate (Thalamus, non-focal side, 200 mg/kg i.v.): ↓↓
- Effect on local cerebral glucose metabolism rate (hippocampus, focal side, 50 mg/kg i.v.): →↓
- Effect on local cerebral glucose metabolism rate [29]: ↓
- Local glucose metabolism rate [29]: 184 ± 7.1 µmol/100 g/min
- Effect on local cerebral glucose metabolism rate (hippocampus, focal side, 200 mg/kg i.v.): ↓↓
- Effect on local cerebral glucose metabolism rate (hippocampus, non-focal side, 50 mg/kg i.v.): ↓
- Effect on local cerebral glucose metabolism rate [30]: ↓↓
- Local glucose metabolism rate [30]: 87.2 ± 8.9 µmol/100 g/min
- Effect on local cerebral glucose metabolism rate (hippocampus, non-focal side, 200 mg/kg i.v.): ↓↓
